Measurements taken from PMC7864049, “Co-crystal structures of HIV TAR RNA bound to lab-evolved proteins show key roles for arginine relevant to the design of cyclic peptide TAR inhibitors” (The Journal of Biological Chemistry, 2021).
“Also recorded” adds a separate entry of the source. Where two headings read alike, the source gives them in different places.

How the values were obtained:
[1] = tested on: Tat ARM binding to HIV-1 TAR RNA
HIV-1 TAR RNA (27-mer) = assay type: binding
HIV TAR RNA = details: cited from earlier work
From the text: (§1) The precise role of arginine in Tat-mediated RNA recognition came into focus only recently based on the high-resolution NMR analysis of an HIV Tat-ARM in complex with human 7SK RNA and HIV TAR RNA ([19]). When bound to host 7SK, Tat adopts a bent conformation wherein a cluster of three arginines specifically recognizes the Hoogsteen edges of guanine nucleobases. Conversely, the Tat-ARM adopts a more linear conformation that uses two arginines to recognize the Hoogsteen edges of TAR nucleobases. Remarkably, these different modes of base recognition use distinctive arginines from the same Tat pe ...

human 7SK RNA = details: cited from earlier work
From the text: as §1

[2] = tested on: Tat ARM binding to HIV-1 TAR RNA; remark: listed apart in the source

Ac-GISYGRKKRRQRRRAHQ-NH2 [Tat ARM, reference compound]
Tat binding mode in presence of TB-LP-6.9 [1]: non- identical two- site binding
Kd (HIV-1 TAR RNA (27-mer)): 166 ± 21 nM
ΔG° (HIV-1 TAR RNA (27-mer)): -9.2 ± 0.1 kcal/mol
ΔH° (HIV-1 TAR RNA (27-mer)): −4.5 ± 0.6 kca/mol
−TΔS° (HIV-1 TAR RNA (27-mer)): -4.8 ± 0.7 kcal/mol
Kd (HIV-1 TAR RNA (27-mer); 20 °C): 135 ± 31 nM
affinity (HIV TAR RNA): nanomolar affinity
affinity (human 7SK RNA): nanomolar affinity
heats of binding of Tat ARM [2]: no significant heats of binding; also recorded: no appreciable heats of binding
